Measured values published in patent US20240360101A1, “PHARMACEUTICAL SALTS OF A CHK-1 INHIBITOR” (SENTINEL ONCOLOGY LIMITED, priority 2021, published 2024).
Counter-ions that a name gives are not always drawn. Each block holds one compound with its values, some of them ahead of it.

Experiments:
[1] = Gravimetric vapour sorption (GVS); format: physicochemical; conditions: for GVS weight loss, initial desorption cycle: from 50% RH to 0% RH; for GVS water gain, subsequent sorption cycle: up to 90% RH; for crystalline form (XRPD) after GVS at extremes of humidity: 0% RH and 90% RH, result in words
Description: Sorption isotherms were obtained using a Hiden Isochema moisture sorption analyser (model IGAsorp), controlled by IGAsorp Systems Software V6.50.48. The sample was maintained at a constant temperature (25° C.) by the instrument controls. The humidity was controlled by mixing streams of dry and wet nitrogen, with a total flow of 250 ml·min−. The instrument was verified for relative humidity (RH) content by measuring three calibrated Rotronic salt solutions (10-50-88%). The weight change of the sample was monitored as a function of humidity by a microbalance (accuracy+/−0.005 mg). A defined amount of sample was placed in a tared mesh stainless steel basket under ambient conditions. A full experimental cycle typically consisted of three scans (sorption, desorption and sorption) at a constant temperature (25° C.) and 10% RH intervals over a 0-90% range (60 minutes for each humidity level).

[2] = Solubility of the salts in biorelevant media; format: physicochemical; conditions: for solubility FaSSGF (pH 1.37): Fasted State Simulated Gastric Fluid; for solubility FaSSGF (pH 1.37) / solubility FaSSIF (pH 6.71) / solubility FeSSIF (pH 5.14): 25° C., 24 h, HPLC; for solubility FaSSIF (pH 6.71): Fasted State Simulated Intestinal Fluid; for solubility FeSSIF (pH 5.14): Fed State Simulated Intestinal Fluid; for solubility in FaSSGF (gastric fluid) compared with the free base: result in words
Description: Biorelevant media (DI H2O, FeSSIF, FaSSIF and FaSSGF) (2 mL) was charged. Samples were left to equilibrate (25° C.) over 24 h. Solubility measurements were taken using HPLC (see Method 1 above).

[3] = Two-week stability (HPLC purity); format: physicochemical; conditions: two-week storage at 25° C./60% RH and 40° C./75% RH; result in words
Description: HPLC analysis was carried out on an Agilent 1110/1200 series HPLC system. The column used was an Triart C18; 150×4.6 mm, 3.0 μm particle size (Ex Waters, PN: 186004644). The flow rate was 1.0 mL/min. Mobile phase A was Water:Trifluoroacetic acid (100:0.1%) and mobile phase B was Acetonitrile:Trifluoroacetic acid (100:0.1%). Detection was by UV at 302 nm. The injection volume was 5 μL, column temperature 40° C. and the following gradient was used: […]
Experimental: Maleate salt pattern B (30 mg) was placed into separate 15 mL type I glass vials. To these vials, a HDPE plastic cap was loosely attached to allow the ingress of moisture. The vials were then placed into ICH rated stability cabinets at 25° C./60% RH and 40° C./75% RH and in cold storage at 2-8° C. Following 2 weeks of storage these samples were removed from the stability cabinets and cold storage and the chemical purity assessed by HPLC (method 2). The relevant data was collected using a wavelength of 302 nm. The samples were prepared in MeCN:water (1:1).

- GVS sharp increase, sorption cycle ([1]; from 40% RH to 60% RH): 6%
- GVS weight loss, initial desorption cycle ([1]; 25° C.): 2.5 wt %
- GVS steady decrease, following desorption cycle ([1]; from 90% RH to 30% RH): ~3 wt %
- GVS water gain, subsequent sorption cycle ([1]; 25° C.): 10%
Compound: COc1cc(C2(F)CCN(C)CC2)ccc1-c1cc(Nc2cnc(C#N)cn2)n[nH]1 [Besylate Pattern A, 5-[[5-[4-(4-fluoro-1-methyl-4-piperidyl)-2-methoxy-phenyl]-1H-pyrazol-3-yl]amino]pyrazine-2-carbonitrile]

- GVS sharp increase, sorption cycle ([1]; between 0% RH and 20% RH): ~2.5 wt %
- GVS weight loss, initial desorption cycle ([1]; 25° C.): ~3 wt %
- GVS water gain, subsequent sorption cycle ([1]; 25° C.): 3.75%
Compound: COc1cc(C2(F)CCN(C)CC2)ccc1-c1cc(Nc2cnc(C#N)cn2)n[nH]1 [Besylate Pattern C, 5-[[5-[4-(4-fluoro-1-methyl-4-piperidyl)-2-methoxy-phenyl]-1H-pyrazol-3-yl]amino]pyrazine-2-carbonitrile]

- GVS weight gain at 90% RH, following sorption cycles ([1]; 90% RH, following sorption cycles): 4 wt %
- GVS water loss, subsequent desorption cycle ([1]; down to 0% RH, 25° C.): 4%
- GVS weight gain, initial sorption cycle ([1]; from 50% RH to 90% RH, 25° C.): 1.5 wt %
Compound: COc1cc(C2(F)CCN(C)CC2)ccc1-c1cc(Nc2cnc(C#N)cn2)n[nH]1 [Maleate Pattern A, 5-[[5-[4-(4-fluoro-1-methyl-4-piperidyl)-2-methoxy-phenyl]-1H-pyrazol-3-yl]amino]pyrazine-2-carbonitrile]
- crystalline form (XRPD) after GVS at extremes of humidity [1]: A new pattern was isolated at 0 and 90% RH and was named B

- GVS weight loss, initial desorption cycle ([1]; 25° C.): 1 wt %
- GVS water gain, subsequent sorption cycle ([1]; 25° C.): ~2.25%
Compound: COc1cc(C2(F)CCN(C)CC2)ccc1-c1cc(Nc2cnc(C#N)cn2)n[nH]1 [Naphthalene-2-Sulfonate Pattern A, 5-[[5-[4-(4-fluoro-1-methyl-4-piperidyl)-2-methoxy-phenyl]-1H-pyrazol-3-yl]amino]pyrazine-2-carbonitrile]
- crystalline form (XRPD) after GVS at extremes of humidity [1]: no change in the crystallinity of the solid occurred at extremes of humidity

- crystalline form (XRPD) after GVS at extremes of humidity [1]: No form change at 0% RH and 90% RH
- GVS sharp decrease, initial desorption ([1]; from 10% RH to 0% RH): ~3 wt %
- GVS steady increase, subsequent sorption ([1]; from 10% RH to 90% RH): ~1%
- GVS weight loss, initial desorption cycle ([1]; 25° C.): 3.5 wt %
- GVS steady decrease, initial desorption ([1]; from 50% RH to 10% RH): 0.5 wt %
- GVS sharp water gain, subsequent sorption ([1]; up to 10% RH): ~3%
Compound: COc1cc(C2(F)CCN(C)CC2)ccc1-c1cc(Nc2cnc(C#N)cn2)n[nH]1 [Tosylate Pattern A, 5-[[5-[4-(4-fluoro-1-methyl-4-piperidyl)-2-methoxy-phenyl]-1H-pyrazol-3-yl]amino]pyrazine-2-carbonitrile]

- Aqueous solubility mg/mL 24 h: 1.18 mg/mL
- GVS weight loss, initial desorption cycle ([1]; 25° C.): 1 wt %
- GVS water gain, subsequent sorption cycle ([1]; 25° C.): ~2.25%
- solubility FaSSGF (pH 1.37) [2]: 0.55 mg/mL
- solubility FaSSIF (pH 6.71) [2]: 0.04 mg/mL
- solubility FeSSIF (pH 5.14) [2]: 0.57 mg/mL
Compound: COc1cc(C2(F)CCN(C)CC2)ccc1-c1cc(Nc2cnc(C#N)cn2)n[nH]1 [besylate pattern B, 5-[[5-[4-(4-fluoro-1-methyl-4-piperidyl)-2-methoxy-phenyl]-1H-pyrazol-3-yl]amino]pyrazine-2-carbonitrile]

- Aqueous solubility mg/mL 24 h: 0.06 mg/mL
Compound: COc1cc(C2(F)CCN(C)CC2)ccc1-c1cc(Nc2cnc(C#N)cn2)n[nH]1 [bis-besylate pattern B, 5-[[5-[4-(4-fluoro-1-methyl-4-piperidyl)-2-methoxy-phenyl]-1H-pyrazol-3-yl]amino]pyrazine-2-carbonitrile]

- Aqueous solubility mg/mL 24 h: 0.15 mg/mL
Compound: COc1cc(C2(F)CCN(C)CC2)ccc1-c1cc(Nc2cnc(C#N)cn2)n[nH]1 [bis-maleate pattern B, 5-[[5-[4-(4-fluoro-1-methyl-4-piperidyl)-2-methoxy-phenyl]-1H-pyrazol-3-yl]amino]pyrazine-2-carbonitrile]

- Aqueous solubility mg/mL 24 h: 10.37 mg/mL
- solubility FaSSGF (pH 1.37) [2]: 8.39 mg/mL
- solubility FaSSIF (pH 6.71) [2]: 0.15 mg/mL
- solubility FeSSIF (pH 5.14) [2]: 0.61 mg/mL
Compound: COc1cc(C2(F)CCN(C)CC2)ccc1-c1cc(Nc2cnc(C#N)cn2)n[nH]1 [hydrochloride pattern C, 5-[[5-[4-(4-fluoro-1-methyl-4-piperidyl)-2-methoxy-phenyl]-1H-pyrazol-3-yl]amino]pyrazine-2-carbonitrile]

- solubility in FaSSGF (gastric fluid) compared with the free base ([2]; maleate): improved solubility in gastric fluid
Compound: COc1cc(C2(F)CCN(C)CC2)ccc1-c1cc(Nc2cnc(C#N)cn2)n[nH]1 [maleate salt, 5-[[5-[4-(4-fluoro-1-methyl-4-piperidyl)-2-methoxy-phenyl]-1H-pyrazol-3-yl]amino]pyrazine-2-carbonitrile maleate]
- solubility in FaSSGF (gastric fluid) compared with the free base ([2]; listed as maleate, maleate): improved solubility over the free base in FaSSGF
- physical, polymorphic and chemical stability on storage [3]: remained as a free flowing solid with no evidence of deliquescence or agglomeration and no change in polymorphic form with good chemical stability

- Aqueous solubility mg/mL 24 h: 7.41 mg/mL
- GVS sharp increase, sorption cycle ([1]; between 30% RH and 40% RH): ~3 wt %
- GVS weight loss, initial desorption cycle ([1]; 25° C.): 5 wt %
- GVS water gain, subsequent sorption cycle ([1]; 25° C.): 7.5%
- solubility FaSSGF (pH 1.37) [2]: 3.24 mg/mL
- solubility FeSSIF (pH 5.14) [2]: 0.27 mg/mL
Compound: COc1cc(C2(F)CCN(C)CC2)ccc1-c1cc(Nc2cnc(C#N)cn2)n[nH]1 [malonate pattern B, 5-[[5-[4-(4-fluoro-1-methyl-4-piperidyl)-2-methoxy-phenyl]-1H-pyrazol-3-yl]amino]pyrazine-2-carbonitrile]

Compound: COc1cc(C2(F)CCN(C)CC2)ccc1-c1cc(Nc2cnc(C#N)cn2)n[nH]1 [malonate, 5-[[5-[4-(4-fluoro-1-methyl-4-piperidyl)-2-methoxy-phenyl]-1H-pyrazol-3-yl]amino]pyrazine-2-carbonitrile]
- solubility in FaSSGF (gastric fluid) compared with the free base [2]: improved solubility over the free base in FaSSGF

- Aqueous solubility mg/mL 24 h: 3.16 mg/mL
Compound: COc1cc(C2(F)CCN(C)CC2)ccc1-c1cc(Nc2cnc(C#N)cn2)n[nH]1 [oxalate pattern A, 5-[[5-[4-(4-fluoro-1-methyl-4-piperidyl)-2-methoxy-phenyl]-1H-pyrazol-3-yl]amino]pyrazine-2-carbonitrile]

- Aqueous solubility mg/mL 24 h: 1.6 mg/mL
Compound: COc1cc(C2(F)CCN(C)CC2)ccc1-c1cc(Nc2cnc(C#N)cn2)n[nH]1 [sulphate pattern D, 5-[[5-[4-(4-fluoro-1-methyl-4-piperidyl)-2-methoxy-phenyl]-1H-pyrazol-3-yl]amino]pyrazine-2-carbonitrile]

- Aqueous solubility mg/mL 24 h: 1.55 mg/mL
- solubility FaSSGF (pH 1.37) [2]: 0.32 mg/mL
- solubility FaSSIF (pH 6.71) [2]: 0.04 mg/mL
- solubility FeSSIF (pH 5.14) [2]: 0.61 mg/mL
Compound: COc1cc(C2(F)CCN(C)CC2)ccc1-c1cc(Nc2cnc(C#N)cn2)n[nH]1 [tosylate pattern C, 5-[[5-[4-(4-fluoro-1-methyl-4-piperidyl)-2-methoxy-phenyl]-1H-pyrazol-3-yl]amino]pyrazine-2-carbonitrile]
